ChEMBL document CHEMBL6120988, “Mitochondria-targeting artesunate-rhein conjugates: Linker-modulated cell-permeability, heme-affinity and anticancer activity” (Eur J Med Chem, 2025)
The source made the active and inactive calls. The rule behind the calls is not given here.

Assays:
4T1 [1] = assay: Immunostimulatory activity in mouse 4T1 cells implanted in female BALB/c mouse assessed as reduction in immunosuppressive CD206+ expression; format: functional, cell-based
4T1 [2] = assay: Induction of apoptosis in mouse 4T1 cells assessed as late apoptotic cells by Annexin V-FITC and PI staining based flow cytometry analysis (reference value: 0.13 %); format: functional
4T1 [3] = assay: Induction of immunogenic cell death in mouse 4T1 cells assessed as increase in CRT expression by flow cytometry analysis (reference value: 2.55%); format: functional
4T1 [4] = assay: Antitumor activity against mouse 4T1 cells allografted in female BALB/c mouse assessed as increase in infiltration of CD8+IFN-gamma+ lymphocytes in tumors at 100 mg/kg, po administrated every day for 15 times and measured after 22 days by flow cytometry (reference value: 5.99%); format: functional; details: time 22 day
[5] = Toxicity against female BALB/c mouse allografted with mouse 4T1 cells assessed as effect on white blood cells at 10 mg/kg, iv administrated every 3 days for 5 times and measured after 22 days; format: organism-based; details: in vivo, 528 h, time 22 day
[6] = Toxicity against female BALB/c mouse allografted with mouse 4T1 cells assessed as mean corpuscular hemoglobin concentration at 100 mg/kg, po administrated every day for 15 times and measured after 22 days; format: organism-based; details: in vivo, 528 h, time 22 day
4T1 [7] = assay: Antitumor activity against mouse 4T1 cells allografted in female BALB/c mouse assessed as disappearance of cancer cells at 10 mg/kg, iv administrated every 3 days for 5 times and measured after 22 days by H and E staining based analysis; format: functional, organism-based; details: time 22.0 day
4T1 [8] = assay: Antitumor activity against mouse 4T1 cells allografted in female BALB/c mouse assessed as increase in apoptotic cells at 10 mg/kg, iv administrated every 3 day for 5 times and measured after 22 days by TUNEL staining based assay; format: functional, organism-based; details: time 22.0 day
4T1 [9] = assay: Immunostimulatory activity in mouse 4T1 cells implanted in female BALB/c mouse assessed as increase in immunostimulatory CD86+ expression; format: functional, cell-based
4T1 [10] = assay: Antitumor activity against mouse 4T1 cells allografted in female BALB/c mouse assessed as tumor inhibition rate at 100 mg/kg, po administrated every day for 15 times and measured after 22 days relative to control; format: functional; set-up: scale not given: the % may be the effect or the level left; details: time 22 day
[11] = Toxicity against female BALB/c mouse allografted with mouse 4T1 cells assessed as hemoglobin at 100 mg/kg, po administrated every day for 15 times and measured after 22 days; format: organism-based; details: in vivo, 528 h, time 22 day
4T1 [12] = assay: Antitumor activity against mouse 4T1 cells allografted in female BALB/c mouse assessed as disappearance of cancer cells at 100 mg/kg, po administrated every day for 15 times and measured after 22 days by H and E staining based analysis; format: functional, organism-based; details: time 22.0 day
HeLa = assay: Cytotoxicity against human Hela cells assessed as cell viability by MTT assay; format: functional, cell-based
[13] = Toxicity against female BALB/c mouse allografted with mouse 4T1 cells assessed as mean corpuscular hemoglobin concentration at 10 mg/kg, iv administrated every 3 days for 5 times and measured after 22 days; format: organism-based; details: in vivo, 528 h, time 22 day
4T1 [14] = assay: Antitumor activity against mouse 4T1 cells allografted in female BALB/c mouse assessed as increase in infiltration of CD44+CD62L- lymphocytes in tumors at 100 mg/kg, po administrated every day for 15 times and measured after 22 days by flow cytometry (reference value: 5.5%); format: functional; details: time 22 day
4T1 [15] = assay: Induction of mitochondrial dysfunction in mouse 4T1 cells assessed as coupling efficiency; format: functional, cell-based
4T1 [16] = assay: Antitumor activity against mouse 4T1 cells allografted in female BALB/c mouse assessed as increase in infiltration of CD3+ CD8+ T lymphocytes in tumors at 10 mg/kg, iv administrated every 3 days for 5 times and measured after 22 days by flow cytometry analysis (reference value: 7.87 %); format: functional; details: time 22 day
[17] = MRT (0 to infinity) in mouse at 100 mg/kg, po; format: ADME, organism-based; details: in vivo
Mitochondrial membrane = assay: Induction of mitochondrial membrane potential loss in mouse 4T1 cells assessed as increase in green fluorescence by JC-1 staining based flow cytometric analysis (reference value: 7.4 %); format: cell membranes
[18] = Toxicity in female BALB/c mouse allografted with mouse 4T1 cells assessed as survival rate at 10 mg/kg, iv administrated every 3 day for 5 times and measured after 22 days relative to control; format: organism-based; details: in vivo, 528 h, time 22 day
4T1 [19] = assay: Antitumor activity against mouse 4T1 cells allografted in female BALB/c mouse assessed as reduction in tumor tissue volume at 10 mg/kg, iv administrated every 3 day for 5 times and measured after for 22 days; format: functional, organism-based; details: time 22.0 day
[20] = Drug localization in mitochondria of mouse 4T1 cells assessed as fluorescence intensity measured using pearson co-efficient incubated for 10 hrs by mito-tracker red fluorescent dye based confocal laser scanning microscopic analysis; format: ADME; details: 4t1, 10 h
[21] = Drug uptake in mouse 4T1 cells after 3 hrs by flow cytometry analysis; format: ADME, cell-based; details: 4t1, 3 h
[22] = AUC(0 to t) in mouse at 100 mg/kg, po; format: ADME, organism-based; details: in vivo
4T1 [23] = assay: Cytotoxicty against mouse 4T1 cells assessed as cell viability by MTT assay; format: functional, cell-based
[24] = Toxicity in female BALB/c mouse allografted with mouse 4T1 cells assessed as survival rate at 100 mg/kg, po administrated every day for 15 times and measured after 22 days relative to control; format: organism-based; details: in vivo, 528 h, time 22 day
[25] = Oral bioavailability in mouse at 100 mg/kg; format: ADME, organism-based; details: in vivo
4T1 [26] = assay: Antitumor activity against mouse 4T1 cells allografted in female BALB/c mouse assessed as reduction in tumor tissue weight at 10 mg/kg, iv administrated every 3 day for 5 times and measured after for 22 days; format: functional, organism-based; details: time 22.0 day
4T1 [27] = assay: Antitumor activity against mouse 4T1 cells allografted in female BALB/c mouse assessed as increase in infiltration of CD44+CD62L- lymphocytes in tumors at 10 mg/kg, iv administrated every day for 15 times and measured after 22 days by flow cytometry (reference value: 5.17%); format: functional; details: time 22 day
4T1 [28] = assay: Antitumor activity against mouse 4T1 cells allografted in female BALB/c mouse assessed as increase in nuclear shrinkage at 100 mg/kg, po administrated every day for 15 times and measured for 22 days; format: functional, organism-based; details: time 22.0 day
4T1 [29] = assay: Antitumor activity against mouse 4T1 cells allografted in female BALB/c mouse assessed as inhibition of cell proliferation at 10 mg/kg, iv administrated every 3 day for 5 times and measured after 22 days by PCNA assay; format: functional, organism-based; details: time 22.0 day
4T1 [30] = assay: Induction of immunogenic cell death in mouse 4T1 cells allografted in female BALB/c mouse assessed as increase in CD80+ CD86+CD11c+ cells DC maturation at 100 mg/kg, po administrated every day for 15 times and measured after 22 days by flow cytometry (reference value: 7.20 %); format: functional; details: time 22 day
[31] = Half life in mouse iv dosed mouse; format: ADME, organism-based; details: in vivo
4T1 [32] = assay: Induction of mitochondrial dysfunction in mouse 4T1 cells assessed as maximum respiration; format: functional, cell-based
4T1 [33] = assay: Induction of apoptosis in mouse 4T1 cells assessed as viable cells by Annexin V-FITC and PI staining based flow cytometry analysis (reference value: 96.2 %); format: functional
[34] = Toxicity in female BALB/c mouse allografted with mouse 4T1 cells assessed as change in body weight at 100 mg/kg, po administrated every day for 15 times and measured every 2 days for 22 days relative to control; format: organism-based; details: in vivo, 528 h, time 22 day
4T1 [35] = assay: Antitumor activity against mouse 4T1 cells allografted in female BALB/c mouse assessed as reduction in tumor tissue volume at 100 mg/kg, po administrated every day for 15 times and measured after 22 days relative to control; format: functional, organism-based; details: time 22.0 day

Structure (SMILES): C[C@H]1[C@H](OC(=O)CCC(=O)OCCCCOC(=O)c2cc(O)c3c(c2)C(=O)c2cccc(O)c2C3=O)O[C@@H]2O[C@@]3(C)CC[C@H]4[C@H](C)CC[C@@H]1[C@@]24OO3
- Activity (4T1 [1]): Active
- Activity (4T1 [2]): 29.4%
- Activity (4T1 [3]): 32.82%
- Activity (4T1 [4]): 13.3%
- Activity [5]: Non-toxic
- Activity [6]: Non-toxic
- Activity (4T1 [7]): Active
- Activity (4T1 [8]): Active
- Activity (4T1 [9]): Active
- Activity (4T1 [10]): 76.84%
- Activity [11]: Non-toxic
- Activity (4T1 [12]): Active
- IC50 (HeLa): 2430 nM
- Activity [13]: Non-toxic
- Activity (4T1 [14]): 17.2%
- Activity (4T1 [15]): Active
- Activity (4T1 [16]): 15.33%
- MRT inf [17]: 4.95 h
- Activity (Mitochondrial membrane): 45.6%
- Survival [18]: <= 39 day
- Activity (4T1 [19]): Active
- Flu intensity [20]: 0.96
- Activity [21]: Active
- AUC(0-t) [22]: 18200 ng·h/mL
- IC50 (4T1 [23]): 1130 nM
- Survival [24]: <= 39 day
- bioavailability [25]: 15.8%
- Activity (4T1 [26]): Active; Tumor Lighter Weight Than Pbs Treatment
- Activity (4T1 [27]): 14.4%
- Activity (4T1 [28]): Active
- Activity (4T1 [29]): Active
- Activity (4T1 [30]): 17.4%
- half-life [31]: 7.01 h
- Activity (4T1 [32]): Active
- Activity (4T1 [33]): 35.5%
- Activity [34]: Non-toxic
- Activity (4T1 [35]): Active; Tumor Lighter Weight Than Pbs Treatment
